The experiment relates to CD2F1 mice, L1210 leukemia ip, survival T/C. As to the kind of experiment: NCI In Vivo Anticancer Drug Screen. Data for tumor model L1210 Leukemia (intraperitoneal) in CD2F1 (CDF1) mice. Conditions: endpoint: mean survival time, higher = longer survival. The procedure, abridged: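 In this screen, transplantable tumors were grown in mice given either the compound or its vehicle. Results were expressed as the treated measurement relative to the control measurement.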

Inconclusive results and toxic doses are left out.

For the molecule `O=NN(CCBr)C(=O)Nc1ccccc1`, the T/C was 150 % of control (dose: 9.0 mg/kg/injection, schedule: Q01DX Z (ip), vehicle: carboxymethylcellulose (CMC)); 162 % of control (dose: 18.0 mg/kg/injection, schedule: Q01DX Z (ip), vehicle: carboxymethylcellulose (CMC)); 158 % of control (dose: 25.0 mg/kg/injection, schedule: Q01DX Z (ip), vehicle: carboxymethylcellulose (CMC)); 183 % of control (dose: 37.0 mg/kg/injection, schedule: Q01DX Z (ip), vehicle: carboxymethylcellulose (CMC)); 115 % of control (dose: 75.0 mg/kg/injection, schedule: Q01DX Z (ip), vehicle: carboxymethylcellulose (CMC)); 103 % of control (dose: 100.0 mg/kg/injection, schedule: Q01DX Z (ip), vehicle: carboxymethylcellulose (CMC)). Moreover, where the note is “dose: 150.0 mg/kg/injection, schedule: Q01DX Z (ip), vehicle: carboxymethylcellulose (CMC)”, the T/C is 90 % of control.
As to `CCC(=O)NCCc1ccccc1`, the T/C is, setting by setting: (dose: 100.0 mg/kg/injection, schedule: Q01DX009 (ip), vehicle: saline with Tween-80) 100 % of control; (dose: 200.0 mg/kg/injection, schedule: Q01DX001 (ip), vehicle: saline with Tween-80) 97 % of control; (dose: 200.0 mg/kg/injection, schedule: Q01DX009 (ip), vehicle: saline with Tween-80) 100 % of control; (dose: 400.0 mg/kg/injection, schedule: Q01DX001 (ip), vehicle: saline with Tween-80) 97 % of control.
`CC(C)(C)NC/C(=C\c1ccccc1)C(=O)c1ccccc1`: the T/C (dose: 25.0 mg/kg/injection, schedule: Q04DX003 (ip), vehicle: saline with Tween-80) is 109 % of control; the T/C (dose: 50.0 mg/kg/injection, schedule: Q04DX003 (ip), vehicle: saline with Tween-80) was 100 % of control; the T/C (dose: 100.0 mg/kg/injection, schedule: Q04DX003 (ip), vehicle: saline with Tween-80) is 117 % of control.
For `COC1CCC(/C=C(\C#N)C2CCC([N+](=O)[O-])CC2)CC1` (configuration not stated), the T/C (dose: 25.0 mg/kg/injection, schedule: Q01DX009 (ip), vehicle: saline with Tween-80) is 86 % of control; the T/C (dose: 50.0 mg/kg/injection, schedule: Q01DX009 (ip), vehicle: saline with Tween-80) was 88 % of control; the T/C (dose: 400.0 mg/kg/injection, schedule: Q01DX009 (ip), vehicle: saline with Tween-80) was 94 % of control.
